According to patent US20230174507A1, “IMIDAZOLE 3-OXIDE DERIVATIVE BASED ACSS2 INHIBITORS AND METHODS OF USE THEREOF” (METABOMED LTD., priority 2020, published 2023):

What was measured:
[1] = target: T1, ACSS2 in MDA-MB-468 cells (Homo sapiens, UniProt Q9NR19); assay: Cellular fatty-acid IC50: 13C-acetate incorporation into fatty acids (palmitate), LC-MS; type: cell-based; conditions: hypoxic conditions (1% O2), 75% charcoal stripped serum, 5 hours, 13C-acetate into palmitate, read-out: Cellular Fatty-acid IC50 High Serum MDA468
T1 construct: endogenous in cells; host or cells: MDA-MB-468 cells, hypoxia (1% O2)
Procedure: Cellular Fatty-Acid IC50 Determination:
The cellular activity of ACSS2 was measured in MDA-MB-468 cells under hypoxic conditions by tracing the incorporation of labelled carbons from ^13C-acetate into newly synthesized fatty acids. The assay was performed using 75% charcoal stripped serum (high serum conditions).
MDA-MB-468 cells were seeded in 12-well plates (0.35×10^6 cells per well) in plating medium (Dulbecco's Modified Eagle Medium containing 25 mM D-glucose, 1 mM sodium pyruvate, 10% v/v fetal bovine serum, and 2 mM glutamine) and incubated for 24 hours under hypoxic conditions (1% O2).
The next day, tracing medium containing DMEM (01-057-1A) containing 75% charcoal stripped serum (Biological industries 04-201-1A), 3.5 μg/mL Biotin (Sigma-Aldrich B4639), 1 mM Pyruvate, 5.5 mM Glucose, 0.65 mM Glutamine and 0.5 mM ^13C-Acetate (Sigma-Aldrich #282014) with serial dilutions of the compounds in the range of 0.000512-1000 nM were prepared. The plating medium was replaced with 1 mL tracing medium plus compounds and the cells were incubated for 5 hours under hypoxic conditions (1% O2). Plating medium in control wells (without cells or without compounds) was replaced with 1 mL tracing medium containing 0.01% v/v DMSO.
The level of ^13C-acetate incorporation into fatty acids (palmitate) was measured by LC-MS analysis and IC50 as described below:
Sample Preparation for LC-MS
• a) Cells were washed twice with cold phosphate buffered saline (PBS), scraped into 0.5 mL EDTA pH 8.0, and transferred into 1.1 mL V-shaped HPLC glass tubes. • b) The cell suspensions were centrifuged for 5 minutes at 400×g, 4° C. and the supernatants were removed. • c) Cell pellets were frozen at −80° C.
• d) Cell pellets were resuspended in 0.2 mL of 80% v/v ethanol in water containing 0.02 M NaOH in 1.1 ml glass (v-bottom) HPLC vials. • e) The vials were closed tight and incubated at 66° C. for 60 minutes. • f) Acetonitrile containing 2% v/v formic acid (150 μL) was added to each vial and the mixtures were transferred to Eppendorf tubes for centrifugation at 17 000×g for 20 minutes. • g) Supernatants were transferred to LC-MS vials.
The relative palmitate concentration was measured by LC-MS in reconstructed selected ion monitoring (RSIM) mode and negative ion mode. Samples were analyzed on a Phenomenex Kinetex 2.6 μm XB-C18 150×2.1 mm column at 45° C. (0.4 mL/minute flow rate) using: • a) A gradient from 15% A/85% C to 100% C for 0 to 2 minutes (A: water containing 5% v/v acetonitrile, 10 mM ammonium acetate, and 10 mM acetic acid; C: a mixture of 50% v/v acetonitrile and 50% v/v methanol). • b) Isocratic flow (100% C) for 2 to 5 minutes. • c) Equilibration in isocratic conditions (15% A/85% C) for 5 to 8 minutes.
Palmitate was eluted at approximately 3.4 minutes.
The percent inhibition was calculated relative to the sample without compound and after background deduction. IC50 values were calculated using non-linear regression curve fit analysis with 0% and 100% constraints (CDD Vault, Collaborative Drug Discovery, Inc. or GraphPad Prism).
The inhibitory activities of each compound against ACSS2 in MDA-MB-468 cells under high serum conditions, as determined by ^13C-acetate incorporation into fatty acids (palmitate), are presented in Table 2.

human ACSS1 protein = target: T2, human ACSS1 protein (Homo sapiens, UniProt Q9NUB1); assay: ACSS1 cell-free activity assay (pyrophosphatase-coupled, Biomol green); type: biochemical; conditions: 5 nM human ACSS1, 30 minutes at room temperature, absorbance at 620 nm
T2 construct: purchased MyBioSource
T2 sequence (Q9NUB1 38-689): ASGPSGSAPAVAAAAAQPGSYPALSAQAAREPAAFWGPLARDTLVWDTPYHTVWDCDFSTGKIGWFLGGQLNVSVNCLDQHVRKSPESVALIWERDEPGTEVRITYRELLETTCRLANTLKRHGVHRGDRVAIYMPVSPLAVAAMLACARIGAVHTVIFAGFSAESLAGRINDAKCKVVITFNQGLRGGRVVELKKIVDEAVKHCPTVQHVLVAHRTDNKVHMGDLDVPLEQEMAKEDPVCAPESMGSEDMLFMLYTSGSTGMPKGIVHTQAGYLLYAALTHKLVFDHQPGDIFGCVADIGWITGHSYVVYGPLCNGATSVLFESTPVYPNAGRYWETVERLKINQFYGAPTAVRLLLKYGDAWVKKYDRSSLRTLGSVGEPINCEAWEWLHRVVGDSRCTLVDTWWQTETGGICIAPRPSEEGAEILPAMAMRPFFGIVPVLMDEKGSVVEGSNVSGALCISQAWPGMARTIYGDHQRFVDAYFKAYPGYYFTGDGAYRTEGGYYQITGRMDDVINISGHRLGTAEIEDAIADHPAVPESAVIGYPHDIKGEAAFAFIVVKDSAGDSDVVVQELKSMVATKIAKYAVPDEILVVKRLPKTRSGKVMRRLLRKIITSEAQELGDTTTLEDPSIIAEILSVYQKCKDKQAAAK
Procedure: ACSS1 Cell-Free Activity Assay (Cell-Free IC50)
(§1) The assay is based on a coupling reaction with Pyrophosphatase: ACSS1 is converting ATP+CoA+Acetate=>AMP+pyrophosphate+Acetyl-CoA (Ac-CoA). Pyrophosphatase converts pyrophosphate, a product of the ACSS1 reaction, to phosphate which can be detected by measuring the absorbance at 620 nm after incubation with the Biomol green reagent (Enzo life Science, BML-AK111).
(§2) Cell Free IC50 Determination:
5 nM of human ACSS1 protein (MyBioSource) was incubated for 30 minutes at room temperature with various compounds' concentrations in a reaction containing 50 mM Hepes pH 7.5, 10 mM DTT, 90 mM KCl, 0.006% Tween-20, 0.1 mg/ml BSA, 2 mM MgCl2, 15 μM CoA, 5 mM NaAc, 300 μM ATP and 0.5 U/ml Pyrophosphatase (Sigma). At the end of the reaction, Biomol Green was added for 30 minutes at RT and the activity was measured by reading the absorbance at 620 nm. IC50 values were calculated using non-linear regression curve fit with 0% and 100% constrains (CDD Vault, Collaborative Drug Discovery, Inc.).

human ACSS2 protein = target: T3, human ACSS2 protein (Homo sapiens, UniProt Q9NR19); assay: ACSS2 cell-free activity assay (pyrophosphatase-coupled, Biomol green); conditions: 10 nM human ACSS2, 90 minutes at 37 C, absorbance at 620 nm; read-out: ACSS2 Biochemical IC50
T3 construct: purchased OriGene Technologies, Inc
Procedure: ACSS2 Cell-Free Activity Assay (Cell-Free IC50)
as §1, with “ACSS2” for “ACSS1”
as §2
10 nM of human ACSS2 protein (OriGene Technologies, Inc) was incubated for 90 minutes at 37 C with various compounds' concentrations in a reaction containing 50 mM Hepes pH 7.5, 10 mM DTT, 90 mM KCl, 0.006% Tween-20, 0.1 mg/ml BSA, 2 mM MgCl2, 10 μM CoA, 5 mM NaAc, 300 μM ATP and 0.5 U/ml Pyrophosphatase (Sigma). At the end of the reaction, Biomol Green was added for 30 minutes at RT and the activity was measured by reading the absorbance at 620 nm. IC50 values were calculated using non-linear regression curve fit with 0% and 100% constrains (CDD Vault, Collaborative Drug Discovery, Inc.).

T1 sequence (Q9NR19 whole entry): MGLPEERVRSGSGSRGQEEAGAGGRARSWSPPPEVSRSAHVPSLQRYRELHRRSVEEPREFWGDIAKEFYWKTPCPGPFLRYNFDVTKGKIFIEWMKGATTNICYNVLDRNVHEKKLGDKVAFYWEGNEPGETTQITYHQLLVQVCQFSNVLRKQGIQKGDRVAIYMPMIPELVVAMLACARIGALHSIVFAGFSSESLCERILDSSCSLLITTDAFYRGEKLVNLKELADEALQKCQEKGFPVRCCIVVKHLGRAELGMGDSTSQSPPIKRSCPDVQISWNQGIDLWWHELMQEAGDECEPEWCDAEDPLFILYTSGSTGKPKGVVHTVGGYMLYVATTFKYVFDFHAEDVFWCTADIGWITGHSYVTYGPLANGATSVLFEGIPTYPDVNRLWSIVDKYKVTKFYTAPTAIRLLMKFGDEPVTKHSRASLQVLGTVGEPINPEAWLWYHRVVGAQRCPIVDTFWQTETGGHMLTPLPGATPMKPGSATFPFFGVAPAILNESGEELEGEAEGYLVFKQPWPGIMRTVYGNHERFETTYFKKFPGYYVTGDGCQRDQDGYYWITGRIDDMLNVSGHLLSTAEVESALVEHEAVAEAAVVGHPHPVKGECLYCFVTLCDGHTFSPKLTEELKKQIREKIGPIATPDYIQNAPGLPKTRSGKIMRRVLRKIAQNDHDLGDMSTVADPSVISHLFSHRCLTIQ
T3 sequence (Q9NR19 whole entry): as above

| Structure (SMILES) | IC50 [1] | ACSS1 Biochemical IC50 (nM) (human ACSS1 protein) | IC50 (human ACSS2 protein) |
| --- | --- | --- | --- |
| CCC(F)(F)c1cccc(NC(=O)c2c(C)[nH]c(-c3ccc(OC)c(-c4ncccc4C)c3)[n+]2[O-])c1 [Compound 100, 4-((3-(1,1-difluoropropyl)phenyl)carbamoyl)-2-(4-methoxy-3-(3-methylpyridin-2-yl)phenyl)-5-methyl-1H-imidazole 3-oxide] | < 20 nM | Inactive |  |
| CCC(F)(F)c1cccc(NC(=O)c2c(C)[nH]c(-c3ccc(OC)cc3)[n+]2[O-])c1 [Compound 101, 4-((3-(1,1-difluoropropyl)phenyl)carbamoyl)-2-(4-methoxyphenyl)-5-methyl-1H-imidazole 3-oxide] | 20 to 50 nM | Inactive |  |
| CCC(F)(F)c1cccc(NC(=O)c2c(C)[nH]c(-c3ccc(OC)c(-c4c(C)cccc4C)c3)[n+]2[O-])c1 [Compound 102, 4-((3-(1,1-difluoropropyl)phenyl)carbamoyl)-2-(6-methoxy-2′,6′-dimethyl-[1,1′-biphenyl]-3-yl)-5-methyl-1H-imidazole 3-oxide] | < 20 nM | Inactive | < 1 nM |
| CCC(F)(F)c1cccc(NC(=O)c2c(C)[nH]c(-c3ccc(OC(F)F)c(-c4c(C)cccc4C)c3)[n+]2[O-])c1 [Compound 103, 2-(6-(difluoromethoxy)-2′,6′-dimethyl-[1,1′-biphenyl]-3-yl)-4-((3-(1,1-difluoropropyl)phenyl)carbamoyl)-5-methyl-1H-imidazole 3-oxide] | 20 to 50 nM | Inactive | < 1 nM |
| COc1ccc(-c2[nH]c(C)c(C(=O)Nc3cccc(C(F)(F)C4CC4)c3)[n+]2[O-])cc1-c1c(C)cccc1C [Compound 104, 4-((3-(cyclopropyldifluoromethyl)phenyl)carbamoyl)-2-(6-methoxy-2′,6′-dimethyl-[1,1′-biphenyl]-3-yl)-5-methyl-1H-imidazole 3-oxide] | 20 to 50 nM | Inactive | < 1 nM |
| COc1ccc(-c2[nH]c(C)c(C(=O)Nc3cccc(CC(F)(F)F)c3)[n+]2[O-])cc1-c1c(C)cccc1C [Compound 194, 2-(6-methoxy-2′,6′-dimethyl-[1,1′-biphenyl]-3-yl)-5-methyl-4-((3-(2,2,2-trifluoroethyl)phenyl)carbamoyl)-1H-imidazole 3-oxide] |  | Inactive | 1 to 30 nM |
| COc1ccc(-c2[nH]c(C)c(C(=O)Nc3cccc(C(O)(O)C(F)(F)F)c3)[n+]2[O-])cc1-c1c(C)cccc1C [Compound 195, 2-(6-methoxy-2′,6′-dimethyl-[1,1′-biphenyl]-3-yl)-5-methyl-4-((3-(2,2,2-trifluoro-1,1-dihydroxyethyl)phenyl)carbamoyl)-1H-imidazole 3-oxide] |  | Inactive | > 30 nM |
| CCC(F)(F)c1cccc(NC(=O)c2c(C)n(COC(C)=O)c(-c3ccc(OC)c(-c4c(C)cccc4C)c3)[n+]2[O-])c1 [Compound 200, 1-(acetoxymethyl)-4-((3-(1,1-difluoropropyl)phenyl)carbamoyl)-2-(6-methoxy-2′,6′-dimethyl-[1,1′-biphenyl]-3-yl)-5-methyl-1H-imidazole 3-oxide] |  | Inactive | > 30 nM |
| CCC(F)(F)c1cccc(NC(=O)c2c(C)n(COP(=O)(OC)OC)c(-c3ccc(OC)c(-c4c(C)cccc4C)c3)[n+]2[O-])c1 [Compound 205, 4-((3-(1,1-difluoropropyl)phenyl)carbamoyl)-1-(((dimethoxyphosphoryl)oxy)methyl)-2-(6-methoxy-2′,6′-dimethyl-[1,1′-biphenyl]-3-yl)-5-methyl-1H-imidazole 3-oxide] |  | Inactive | > 30 nM |
| COc1ccc(-c2[nH]c(C)c(C(=O)Nc3cccc(C4(C(F)(F)F)CC4)c3)[n+]2[O-])cc1-c1c(C)cccc1C [Compound 206, 2-(6-methoxy-2′,6′-dimethyl-[1,1′-biphenyl]-3-yl)-5-methyl-4-((3-(1-(trifluoromethyl)cyclopropyl)phenyl)carbamoyl)-1H-imidazole 3-oxide] |  | Inactive | > 30 nM |
| COc1cc(F)c(-c2[nH]c(C)c(C(=O)Nc3cccc(C(F)(F)F)c3)[n+]2[O-])nc1-c1c(F)cccc1F [Compound 208, 2-(6-(2,6-difluorophenyl)-3-fluoro-5-methoxypyridin-2-yl)-5-methyl-4-((3-(trifluoromethyl)phenyl)carbamoyl)-1H-imidazole 3-oxide] |  | Inactive | 1 to 30 nM |
| COc1cc(F)c(-c2[nH]c(C)c(C(=O)Nc3cccc(C(F)(F)F)c3)[n+]2[O-])nc1-c1c(C)cc(F)cc1C [Compound 209, 2-(3-fluoro-6-(4-fluoro-2,6-dimethylphenyl)-5-methoxypyridin-2-yl)-5-methyl-4-((3-(trifluoromethyl)phenyl)carbamoyl)-1H-imidazole 3-oxide] |  | Inactive | 1 to 30 nM |
